ChEMBL document CHEMBL4184182, “Studies on interactions of carbazole derivatives with DNA, cell image, and cytotoxicity” (Bioorg Med Chem, 2018)
Calls of active or inactive are those of the source. No cut-off for these calls is given here.

What was measured:
[1] = test system: Calf thymus DNA; assay: Binding affinity to calf thymus DNA assessed as red shift at 10 uM after 5 mins by UV-Visible absorbance titration method; assay type: nucleic-acid assay; conditions: Bos taurus
[2] = test system: Calf thymus DNA; assay: Binding affinity to calf thymus DNA after 5 mins by UV-Visible absorbance titration method; assay type: nucleic-acid assay; conditions: Bos taurus
[3] = test system: dsDNA; assay: Binding affinity to 26-mer duplex DNA (unknown origin) after 5 mins by UV-Visible absorbance titration method; assay type: nucleic-acid assay
[4] = test system: Quadruplex DNA; assay: Binding affinity to c-Kit G-quadruplex DNA (unknown origin) after 5 mins by UV-Visible absorbance titration method; assay type: nucleic-acid assay
[5] = test system: Quadruplex DNA; assay: Binding affinity to Bcl2 G-quadruplex DNA (unknown origin) after 5 mins by UV-Visible absorbance titration method; assay type: nucleic-acid assay
[6] = test system: Quadruplex DNA; assay: Binding affinity to c-Myc G-quadruplex DNA (unknown origin) after 5 mins by UV-Visible absorbance titration method; assay type: nucleic-acid assay
[7] = test system: Quadruplex DNA; assay: Binding affinity to human telomeric G-quadruplex DNA after 5 mins in presence of potassium ion by UV-Visible absorbance titration method; assay type: nucleic-acid assay
[8] = test system: Quadruplex DNA; assay: Binding affinity to human telomeric G-quadruplex DNA after 5 mins in presence of sodium ion by UV-Visible absorbance titration method; assay type: nucleic-acid assay
[9] = test system: Quadruplex DNA; assay: Binding affinity to human telomeric G-quadruplex DNA assessed as absorption maximum at 5 uM after 5 mins in presence of potassium ion by fluorescence titration method (reference value: 453 nanometer); assay type: nucleic-acid assay
[10] = test system: Quadruplex DNA; assay: Binding affinity to c-Kit G-quadruplex DNA (unknown origin) assessed as emission maximum at 5 uM after 5 mins by fluorescence titration method (reference value: 584 nanometer); assay type: nucleic-acid assay
[11] = test system: Quadruplex DNA; assay: Binding affinity to c-Kit G-quadruplex DNA (unknown origin) assessed as compound fluorescence life time at 5 uM after 5 mins by fluorescence titration method (reference value: 0.192 nanoseconds); assay type: nucleic-acid assay
[12] = test system: Quadruplex DNA; assay: Binding affinity to c-Myc G-quadruplex DNA (unknown origin) assessed as compound fluorescence life time at 5 uM after 5 mins by fluorescence titration method (reference value: 0.192 nanoseconds); assay type: nucleic-acid assay
[13] = Selectivity ratio of Kb for c-Kit G-quadruplex DNA (unknown origin) to Kb for calf thymus DNA
[14] = Selectivity ratio of Kb for Bcl2 G-quadruplex DNA (unknown origin) to Kb for calf thymus DNA
[15] = Selectivity ratio of Kb for c-Myc G-quadruplex DNA (unknown origin) to Kb for calf thymus DNA
[16] = Selectivity ratio of Kb for human telomeric G-quadruplex DNA in presence of potassium ion to Kb for calf thymus DNA
[17] = Selectivity ratio of Kb for human telomeric G-quadruplex DNA in presence of sodium ion to Kb for calf thymus DNA
[18] = test system: Quadruplex DNA; assay: Binding affinity to Bcl2 G-quadruplex DNA (unknown origin) assessed as stoichiometric ratio of compound to G-quadruplex DNA after 5 mins by Job plot analysis; assay type: nucleic-acid assay
[19] = test system: Quadruplex DNA; assay: Binding affinity to c-Kit G-quadruplex DNA (unknown origin) assessed as stoichiometric ratio of compound to G-quadruplex DNA after 5 mins by Job plot analysis; assay type: nucleic-acid assay
[20] = test system: Quadruplex DNA; assay: Binding affinity to c-Myc G-quadruplex DNA (unknown origin) assessed as stoichiometric ratio of compound to G-quadruplex DNA after 5 mins by Job plot analysis; assay type: nucleic-acid assay
[21] = test system: Quadruplex DNA; assay: Binding affinity to human telomeric G-quadruplex DNA assessed as stoichiometric ratio of compound to G-quadruplex DNA after 5 mins in presence of potassium ion by Job plot analysis; assay type: nucleic-acid assay
[22] = test system: Quadruplex DNA; assay: Binding affinity to human telomeric G-quadruplex DNA assessed as stoichiometric ratio of compound to G-quadruplex DNA after 5 mins in presence of sodium ion by Job plot analysis; assay type: nucleic-acid assay
[23] = target: Quadruplex DNA; assay: Displacement of thiazole orange from Bcl2 G-quadruplex DNA (unknown origin) after 5 mins by fluorescence spectral analysis; assay type: nucleic-acid assay
[24] = target: Quadruplex DNA; assay: Displacement of thiazole orange from c-Kit G-quadruplex DNA (unknown origin) after 5 mins by fluorescence spectral analysis; assay type: nucleic-acid assay
[25] = target: Quadruplex DNA; assay: Displacement of thiazole orange from c-Myc G-quadruplex DNA (unknown origin) after 5 mins by fluorescence spectral analysis; assay type: nucleic-acid assay
[26] = target: Quadruplex DNA; assay: Displacement of thiazole orange from human telomeric G-quadruplex DNA after 5 mins in presence of potassium ion by fluorescence spectral analysis; assay type: nucleic-acid assay
[27] = target: Quadruplex DNA; assay: Displacement of thiazole orange from human telomeric G-quadruplex DNA after 5 mins in presence of sodium ion by fluorescence spectral analysis; assay type: nucleic-acid assay
[28] = target: dsDNA; assay: Displacement of thiazole orange from 26-mer duplex DNA (unknown origin) after 5 mins by fluorescence spectral analysis; assay type: nucleic-acid assay
[29] = Selectivity ratio of DC50 for 26-mer duplex DNA (unknown origin) to DC50 for Bcl2 G-quadruplex DNA (unknown origin)
[30] = Selectivity ratio of DC50 for 26-mer duplex DNA (unknown origin) to DC50 for c-Kit G-quadruplex DNA (unknown origin)
[31] = Selectivity ratio of DC50 for 26-mer duplex DNA (unknown origin) to DC50 for c-Myc G-quadruplex DNA (unknown origin)
[32] = Selectivity ratio of DC50 for 26-mer duplex DNA (unknown origin) to DC50 for human telomeric G-quadruplex DNA in presence of potassium ion
[33] = test system: Quadruplex DNA; assay: Induction of conformational changes in Bcl2 G-quadruplex DNA (unknown origin) at 15 uM after 5 mins by CD spectral analysis; assay type: nucleic-acid assay
[34] = test system: Quadruplex DNA; assay: Induction of conformational changes in c-Kit G-quadruplex DNA (unknown origin) at 15 uM after 5 mins by CD spectral analysis; assay type: nucleic-acid assay
[35] = test system: Quadruplex DNA; assay: Induction of conformational changes in c-Myc G-quadruplex DNA (unknown origin) at 15 uM after 5 mins by CD spectral analysis; assay type: nucleic-acid assay
[36] = test system: Quadruplex DNA; assay: Induction of conformational changes in human telomeric G-quadruplex DNA at 15 uM after 5 mins in presence of potassium ion by CD spectral analysis; assay type: nucleic-acid assay
[37] = test system: Quadruplex DNA; assay: Induction of conformational changes in human telomeric G-quadruplex DNA at 15 uM after 5 mins in presence of sodium ion by CD spectral analysis; assay type: nucleic-acid assay
[38] = test system: HepG2; assay: Antiproliferative activity against human HepG2 cells after 72 hrs by MTT assay; assay type: functional, cell-based; conditions: for IC50: HepG2, 72 h
[39] = Drug uptake in RNase-A treated human HepG2 cell nucleus at 3 uM after 30 mins by H33258.staining based confocal microscopic method; assay type: ADME, subcellular; conditions: hepg2, 0.5 h
[40] = test system: dsDNA; assay: Binding affinity to 26-mer duplex DNA (unknown origin) assessed as red shift at 15 uM after 5 mins by UV-Visible absorbance titration method; assay type: nucleic-acid assay
[41] = test system: Quadruplex DNA; assay: Binding affinity to human telomeric G-quadruplex DNA assessed as compound fluorescence life time at 5 uM after 5 mins in presence of potassium ion by fluorescence titration method (reference value: 3.626 nanoseconds); assay type: nucleic-acid assay
[42] = test system: Quadruplex DNA; assay: Binding affinity to c-Kit G-quadruplex DNA (unknown origin) assessed as enhanced fluorescence time at 5 uM after 5 mins by fluorescence titration assay relative to control; assay type: nucleic-acid assay
[43] = test system: Quadruplex DNA; assay: Binding affinity to c-Myc G-quadruplex DNA (unknown origin) assessed as enhanced fluorescence time at 5 uM after 5 mins by fluorescence titration assay relative to control; assay type: nucleic-acid assay
[44] = Drug uptake in human HepG2 cell nucleus at 10 uM after 2.5 hrs by confocal microscopic method; assay type: ADME, subcellular; conditions: hepg2, 2.5 h

Structure (SMILES)	Kb [2] [×10⁴ /M]	Kb [3] [×10⁴ /M]	Kb [4] [×10⁴ /M]	Kb [5] [×10⁴ /M]	Kb [6] [×10⁴ /M]	Kb [7] [×10⁴ /M]	Kb [8] [×10⁴ /M]	Selectivity ratio [13]	Selectivity ratio [14]	Selectivity ratio [15]	Selectivity ratio [16]	Selectivity ratio [17]	Ratio [18]	Ratio [19]	Ratio [20]	Ratio [21]	Ratio [22]	DC50 [23] [µM]	DC50 [24] [µM]	DC50 [25] [µM]	other results
CCn1c2ccccc2c2cc(/C=C/c3sc4ccccc4[n+]3CC)ccc21.[I-]	1.32	3.97	23.9	32	54.9	18.3	7.86	18.1	24.2	41.6	13.9	6	1.5	1.9	1.9	2.2	1.9	0.84	2.15	0.93	Activity [1]: 24 nm; Activity [9]: 474 nm; Activity [10]: 588 nm; Time [11]: 1.51 nanoseconds; Time [12]: 1.68 nanoseconds; DC50 [26]: 1.81 µM; DC50 [27]: 6.08 µM; DC50 [28]: 4.34 µM; Selectivity ratio [29]: 5.17; Selectivity ratio [30]: 2.02; Selectivity ratio [31]: 4.67; Selectivity ratio [32]: 2.4; Activity [33]: inactive; Activity [34]: inactive; Activity [35]: inactive; Activity [36]: inactive; Activity [37]: inactive; Activity [38]: Dose-dependent effect; IC50 [38]: 2.7 µM; Drug uptake [39]: Active
CCn1c2ccccc2c2cc(/C=C(\C#N)c3ccc[n+](C)c3)ccc21.[I-]	1	2.28	10.7	9.99	19.2	11.9	6.95	6.7	6.2	12	7.4	4.3	1.6	2	2.1	2.2	1.9	9.25	6.03	5.15	Activity [40]: 17 nm; Time [41]: 6.35 nanoseconds; DC50 [26]: 6.64 µM; DC50 [27]: 9.85 µM; DC50 [28]: 13.1 µM; Selectivity ratio [29]: 1.42; Selectivity ratio [30]: 2.17; Selectivity ratio [31]: 2.55; Selectivity ratio [32]: 1.98; Activity [33]: inactive; Activity [34]: inactive; Activity [35]: inactive; Activity [36]: inactive; Activity [37]: inactive; fold change (FC) [42]: 11.2 to 20.6; fold change (FC) [43]: 11.2 to 20.6; Activity [38]: Dose-dependent effect; IC50 [38]: 9.8 µM; Drug uptake [44]: Not Active
